Several values for one entry are separate records, joined by “and”; a condition that tells them apart may be missing. Equal entries are not always repeated.

The assay concerns the target T1, human TG2 (Homo sapiens, UniProt P21980).
T1 sequence (P21980 1-687): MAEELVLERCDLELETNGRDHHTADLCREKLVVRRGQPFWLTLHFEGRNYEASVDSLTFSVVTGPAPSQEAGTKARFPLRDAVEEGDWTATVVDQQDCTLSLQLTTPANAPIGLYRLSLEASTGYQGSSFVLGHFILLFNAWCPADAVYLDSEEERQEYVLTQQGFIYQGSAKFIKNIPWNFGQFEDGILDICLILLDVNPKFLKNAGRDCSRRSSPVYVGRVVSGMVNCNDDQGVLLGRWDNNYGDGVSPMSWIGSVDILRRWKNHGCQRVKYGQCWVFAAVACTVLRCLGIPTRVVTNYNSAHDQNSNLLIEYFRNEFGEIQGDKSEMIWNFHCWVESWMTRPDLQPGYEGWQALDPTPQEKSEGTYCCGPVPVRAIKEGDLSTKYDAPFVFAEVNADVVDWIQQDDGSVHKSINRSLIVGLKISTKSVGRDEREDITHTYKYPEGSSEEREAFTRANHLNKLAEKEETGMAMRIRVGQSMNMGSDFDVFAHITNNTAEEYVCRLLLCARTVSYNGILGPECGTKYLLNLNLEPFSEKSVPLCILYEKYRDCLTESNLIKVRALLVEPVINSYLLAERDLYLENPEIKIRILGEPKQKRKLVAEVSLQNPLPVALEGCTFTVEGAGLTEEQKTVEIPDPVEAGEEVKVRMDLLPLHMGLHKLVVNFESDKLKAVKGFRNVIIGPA
In words: fluorescent screening assay for human TG2. Particulars: 20 nM TG2, 8 μM N,N-dimethylated Casein, 16 μM KxD, pH 7.4, 37° C. The format is biochemical. The procedure, abridged: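 20 nM TG2 with 8 μM N,N-dimethylated casein and 16 μM K×D in 25 mM Hepes pH 7.4, 250 mM NaCl, 2 mM MgCl2, 0.5 mM CaCl2, 0.2 mM DTT, 0.05% Pluronic F-127 at 37° C. Fluorescence (ex 350, em 535 nm) was read every 3 min for up to 2 h. Initial linear velocity served as activity.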

The term IC50 denotes the concentration needed to halve the response being measured. A high value points to weaker potency. Regarding `C=CC(=O)Nc1ccc(S(=O)(=O)N2CCN(c3ncccc3C)CC2)cc1` [N-{4-[4-(3-Methyl-pyridin-2-yl)-piperazine-1-sulfonyl]-phenyl}-acrylamide], the IC50 is 100 to 1000 nM and < 100 nM.

Turning to `C=CC(=O)Nc1ccc(S(=O)(=O)N2CCN(C(=O)CCc3ccccn3)CC2)cc1` [N-{4-[4-(3-Pyridin-2-yl-propionyl)-piperazine-1-sulfonyl]-phenyl}-acrylamide], the IC50 was 100 to 1000 nM and < 100 nM.

On to `C=CC(=O)Nc1ccc(S(=O)(=O)N2CCN(c3ncccc3C(F)(F)F)CC2)cc1` [N-{4-[4-(3-Trifluoromethyl-pyridin-2-yl)-piperazine-1-sulfonyl]-phenyl}-acrylamide], for which the IC50 is 100 to 1000 nM and < 100 nM.

Turning to `C=CC(=O)Nc1ccc(S(=O)(=O)N2CCN(C(=O)N3CCC(F)(F)CC3)CC2)cc1` [N-{4-[4-(4,4-Difluoro-piperidine-1-carbonyl)-piperazine-1-sulfonyl]-phenyl}-acrylamide], the IC50 is 100 to 1000 nM and < 100 nM.

`C=CC(=O)Nc1ccc(S(=O)(=O)N2CCN(c3nc(C)cc(C)n3)CC2)cc1` [N-{4-[4-(4,6-Dimethyl-pyrimidin-2-yl)-piperazine-1-sulfonyl]-phenyl}-acrylamide]: the IC50 is < 100 nM and 100 to 1000 nM.

For `C=CC(=O)Nc1ccc(S(=O)(=O)N2CCN(c3nccc(OC)n3)CC2)cc1` [N-{4-[4-(4-Methoxy-pyrimidin-2-yl)-piperazine-1-sulfonyl]-phenyl}-acrylamide], the IC50 is < 100 nM and 100 to 1000 nM.

Turning to `C=CC(=O)Nc1ccc(S(=O)(=O)N2CCN(c3cc(C)ccn3)CC2)cc1` [N-{4-[4-(4-Methyl-pyridin-2-yl)-piperazine-1-sulfonyl]-phenyl}-acrylamide], the IC50 is < 100 nM and 100 to 1000 nM.

Consider `C=CC(=O)Nc1ccc(S(=O)(=O)N2CCN(c3nccc(C(F)(F)F)n3)CC2)cc1` [N-{4-[4-(4-Trifluoromethyl-pyrimidin-2-yl)-piperazine-1-sulfonyl]-phenyl}-acrylamide], for which the IC50 is < 100 nM and 100 to 1000 nM.

As for `C=CC(=O)Nc1ccc(S(=O)(=O)N2CCN(c3ccc(Cl)cn3)CC2)cc1` [N-{4-[4-(5-Chloro-pyridin-2-yl)-piperazine-1-sulfonyl]-phenyl}-acrylamide], the IC50 is < 100 nM and 100 to 1000 nM.

With `C=CC(=O)Nc1ccc(S(=O)(=O)N2CCN(c3ccc(C)cn3)CC2)cc1` [N-{4-[4-(5-Methyl-pyridin-2-yl)-piperazine-1-sulfonyl]-phenyl}-acrylamide], the IC50 was < 100 nM and 100 to 1000 nM.

Regarding `C=CC(=O)Nc1ccc(S(=O)(=O)N2CCN(c3cccc(C)n3)CC2)cc1` [N-{4-[4-(6-Methyl-pyridin-2-yl)-piperazine-1-sulfonyl]-phenyl}-acrylamide], the IC50 is 100 to 1000 nM and < 100 nM.

For `C=CC(=O)Nc1ccc(S(=O)(=O)N2CCN(C(=O)C34CC5CC(CC(C5)C3)C4)CC2)c(F)c1` [N-{4-[4-(Adamantane-1-carbonyl)-piperazine-1-sulfonyl]-3-fluoro-phenyl}-acrylamide], the IC50 was 100 to 1000 nM and < 100 nM.

Turning to `C=CC(=O)Nc1ccc(S(=O)(=O)N2CCN(C(=O)C34CC5CC(CC(C5)C3)C4)CC2)cc1` [N-{4-[4-(Adamantane-1-carbonyl)-piperazine-1-sulfonyl]-phenyl}-acrylamide], the IC50 was 100 to 1000 nM and < 100 nM.

Regarding `C=CC(=O)Nc1ccc(S(=O)(=O)N2CCN(C(=O)N3CCC4CCCCC4C3)CC2)cc1` (stereo not shown) [N-{4-[4-(Octahydro-isoquinoline-2-carbonyl)-piperazine-1-sulfonyl]-phenyl}-acrylamide], the IC50 is 100 to 1000 nM and < 100 nM.

Take `C=CC(=O)Nc1ccc(S(=O)(=O)N2CCN(C(=O)N3CCCC4CCCCC43)CC2)cc1` (stereo not shown) [N-{4-[4-(Octahydro-quinoline-1-carbonyl)-piperazine-1-sulfonyl]-phenyl}-acrylamide]: the IC50 was 100 to 1000 nM and < 100 nM.

`C=CC(=O)Nc1ccc(S(=O)(=O)N2CCN(C(=O)N3CCCCC3)CC2)cc1` [N-{4-[4-(Piperidine-1-carbonyl)-piperazine-1-sulfonyl]-phenyl}-acrylamide]: the IC50 was 100 to 1000 nM and < 100 nM.

For `C=CC(=O)Nc1ccc(S(=O)(=O)N2CCC(C(=O)N3CCCCC3)CC2)cc1` [N-{4-[4-(Piperidine-1-carbonyl)-piperidine-1-sulfonyl]-phenyl}-acrylamide], the IC50 was 100 to 1000 nM and < 100 nM.

Consider `C=CC(=O)Nc1ccc(S(=O)(=O)N2CCN(C(=O)N3CCCC3)CC2)cc1` [N-{4-[4-(Pyrrolidine-1-carbonyl)-piperazine-1-sulfonyl]-phenyl}-acrylamide], for which the IC50 was 100 to 1000 nM and < 100 nM.

Take `C=CC(=O)Nc1ccc(S(=O)(=O)N2CCN(C(=O)C3CCOCC3)CC2)cc1` [N-{4-[4-(Tetrahydro-pyran-4-carbonyl)-piperazine-1-sulfonyl]-phenyl}-acrylamide]: the IC50 is 100 to 1000 nM and < 100 nM.

The compound `C=CC(=O)Nc1ccc(S(=O)(=O)NCc2ccc(-c3ccccc3)nc2)cc1` [N-{4-[(6-Phenyl-pyridin-3-ylmethyl)-sulfamoyl]-phenyl}-acrylamide] gave an IC50 of 1000 to 25000 nM.

`C=CC(=O)Nc1ccc(S(=O)(=O)N(Cc2ccccc2)Cc2ccc(Cl)cc2)cc1` [N-{4-[Benzyl-(4-chloro-benzyl)-sulfamoyl]-phenyl}-acrylamide]: the IC50 lay in the range of 1000 to 25000 nM.

The compound `C=CC(=O)Nc1ccc(S(=O)(=O)N(C)Cc2csc(N3CCOCC3)n2)cc1` [N-{4-[Methyl-(2-morpholin-4-yl-thiazol-4-ylmethyl)-sulfamoyl]-phenyl}-acrylamide] returned an IC50 of 1000 to 25000 nM.

Compound `C=CC(=O)Nc1ccc(S(=O)(=O)N(C)Cc2cccc(CN3CCCC3)c2)cc1` [N-{4-[Methyl-(3-pyrrolidin-1-ylmethyl-benzyl)-sulfamoyl]-phenyl}-acrylamide] returned an IC50 of 1000 to 25000 nM.

Take `C=CC(=O)Nc1ccc(S(=O)(=O)N2CCC(N(C)C(=O)OC(C)(C)C)CC2)cc1` [[1-(4-Acryloylamino-benzenesulfonyl)-piperidin-4-yl]-methyl-carbamic acid tert-butyl ester]: the IC50 was 100 to 1000 nM and < 100 nM.

On to `C=CC(=O)Nc1ccc(S(=O)(=O)N(C)CCN(C)C(=O)OCc2ccccc2)cc1` [{2-[(4-Acryloylamino-benzenesulfonyl)-methyl-amino]-ethyl}-methyk-carbamic acid benzyl ester], for which the IC50 lay in the range of 1000 to 25000 nM.

(Values after patent US8946197B2, “Transglutaminase TG2 inhibitors, pharmaceutical compositions, and methods of use thereof” (CHDI Foundation, Inc., priority 2009, dated 2015).)
